Literature values in patent US8748582B2, “Affinity ligands and methods for protein purification” (Monash University, priority 2009, dated 2014).

Target: IgG
Conditions: read-out: dissociation constant for IgG

For “Protein A: bacterial Fc receptor used as immobilised affinity ligand for antibodies”, the Kd is listed as 0.1 µM.
